Entries after “also recorded” stand apart in the source; their conditions may differ.
Key:
Type in all cases: in vivo, mouse
CTX mice [1] = assay: Cholestanol and 7αC4 in plasma of treated CTX mice (HPLC-MS/MS)
From the text: A mouse strain with truncation of Cyp27a1 exon 8 was obtained from The Jackson Laboratory (Bar Harbor, Me.) (B6.129-Cyp27a1^tm1Et/J, Ref. 009106) (Rosen H, et al. J. Biol. Chem. 1998; 273:14805-14812). Mice homozygous for this mutation (referred hereinafter to as Cyp27a1^−/− or CTX mice) were maintained in a C57BL6/J background by crossing heterozygous individuals. The offspring was genotyped after weaning as indicated by the repository.
Animals were group-housed, up to 6 animals per cage (male or female), provided with food and water ad libitum and maintained with a 12 h light-dark cycle. The average age for initiation of studies was 7 weeks. AAV vectors were administered intravenously by retro-orbital injection in a final volume of 150 μl saline solution. Chenodeoxycholic (CDCA) (Sigma-Aldrich, Ref: C9377-25G) was supplemented in standard chow at 0.1, 0.5 and 1 g CDCA/100 g of chow (0.1, 0.5 and 1.0% CDCA diets, respectively). Blood was collected by submandibular venous puncture using 1.3 ml EDTA tubes (Sarstedt, Nimbrecht, Germany) except for end-time points/terminal procedures, in which cardiac puncture was performed in anesthetized mice. Once animals were euthanized, liver samples were collected for histological and gene expression analyses.
(§1) Blood was centrifuged at 10.000 g for 5 min at room temperature. Plasma was treated with 20 μM butylhydroxytoluene (Sigma) in a N2 atmosphere to protect from oxidation before storage at −80° C. in opaque tubes. Sterol extractions were performed using 100 μl of plasma for quantification of cholestanol and 7αC4 concentrations by HPLC-MS/MS as previously described (Chen W, Chiang J Y L. Gene. 2003; 313:71-82). Bile acid (BA) profiling in serum was carried out after acetonitrile precipitation/extraction (Leníček M, et al. J. Chromatogr. B Anal. Technol. Biomed. Life Sci. 2016; 1033-1034:317-320), using an adaptation (Nytofte N S, et al. J. Med. Genet. 2011; 48:219-225). of a previously described method for BA measurement by HPLC-MS/MS (Ye L, et al. J. Chromatogr. B Anal. Technol. Biomed. Life Sci. 2007; 860:10-17) on a 6420 Triple Quad LC/MS device (Agilent Technologies, Santa Clara, Calif.) (Monte M J, et al. J. Hepatol. 2002; 36:534-542). Alanine aminotransferase (ALT) was quantified in 40 μl plasma samples using a Cobas C311 automated chemistry analyser (Roche Diagnostics, Basel, Switzerland).
This is the only CTX animal model available to date (Rosen et al. J. Biol. Chem. 273 (1998) 14805-14812).
Blood was collected 15 days later for determination of cholestanol and 7aC4 in plasma by HPLC/mass spectrometry. […] Of note, neither elevation of liver transaminases nor any other sign of toxicity was detected in any of the treated animals.

CTX mice [2] = assay: Tolerability: transaminases (ALT), liver histology, body weight, signs of toxicity; conditions: diet 1% of chow weight
Protocol: Blood was centrifuged at 10.000 g for 5 min at room temperature. Plasma was treated with 20 μM butylhydroxytoluene (Sigma) in a N2 atmosphere to protect from oxidation before storage at −80° C. in opaque tubes. […] Alanine aminotransferase (ALT) was quantified in 40 μl plasma samples using a Cobas C311 automated chemistry analyser (Roche Diagnostics, Basel, Switzerland).

Cyp27a1 = assay: Endogenous Cyp27a1 mRNA in liver (primers exons 1/2), qPCR; conditions: liver 2 weeks after vector or one month after initiation of CDCA diet
Protocol: (§2) RNA was extracted from frozen liver samples using the Maxwell® 16 LEV simplyRNA Cells Kit (Promega) following manufacture's recommendations. Two μg of RNA, treated with DNase I, were retro-transcribed using M-MLV retro-transcriptase (Invitrogen™) and random primers (Life Technologies, Thermo). cDNA was amplified and relative gene expression was determined by quantitative polymerase chain reaction (qPCR) using iQ™ SYBR® Green Supermix reagent (Bio-Rad), in CFX96 Touch™ Real-Time PCR Detection System (Bio-Rad). Table 1 contains the sequence of primers specific for the transgene (CYP27A1) and the mouse genes Cyp7a1, Cyp3a11, Cyp27a1 (exons 1/2), Cyp27a1 (exons 8/9) and 36b4 (used as a housekeeping gene).
(§3) ΔCt values using 36b4 mRNA levels as reference gene were corrected with the efficiency of amplification of each pair of primers and multiplied by 1.000 to facilitate graphical representation.
(§4) To this aim, mRNA was extracted from liver samples collected 2 weeks after vector administration, or one month after initiation of the CDCA treatment. First, the inventors studied the impact of the treatments on the transcriptional control of the endogenous Cyp27a1 gene. Since CTX mice present truncation of the gene at exon 8 out of 9 (Rosen H, et al. J. Biol. Chem. 1998; 273:14805-14812), the inventors employed primers targeting exons 1/2 in order to detect the wild type or truncated transcripts.

Cyp3a11 = conditions: 0.5% diet, one month
Protocol: as §2, §3, §4

Cyp7a1 = conditions: 0.5% diet (therapeutic dose), one month
Protocol: as §2, §3, §4

CTX mice [3] = assay: Hepatomegaly: relative liver weight as percentage of body weight; conditions: 0.5% diet, 3 months
Protocol: FIG. 11. AAV8-EAAT-CYP27A1 reverses hepatomegaly in CTX mice. The AAV8-EAAT-CYP27A1 vector was administered intravenously to 7 week-old CTX mice at the indicated doses. CDCA was mixed in mouse chow at 0.1 or 0.5%. Untreated CTX and WT littermates were included as a reference. Mice were maintained for 3 months and then they were sacrificed for determination of relative liver weight, represented as percentage of body weight. *p<0.05; ***p<0.001 versus untreated CTX mice. Kruskal-Wallis with Dunn's post-test.
Activation of the xenobiotic response pathways produces hepatomegaly in CTX mice (Repa J J, et al. J. Biol. Chem. 2000; 275:39685-39692).

CTX mice [4] = assay: Bile acid profile in blood (HPLC-MS/MS)
Protocol: as §1
In order to determine if gene therapy is able to achieve sustained metabolic correction in CTX mice, the bile acid profile was analyzed in the blood of animals treated with AAV8-EAAT-CYP27A1 for 5 months at 1.5 or 15×10^12 vg/Kg. The optimal dose of CDCA (0.5% chow weight) was maintained for the same period and used for comparison. The inventors observed an increase of primary and secondary bile acids in mice treated with the vector at both doses (FIG. 12), including CDCA. […] This tendency was more evident in the high dose group and included other species such as tauromuricholic acids (TMCA) and taurohyodeoxycholic acid (THDCA). In sharp contrast, treatment with CDCA caused a drastic increase in this bile acid and its derivatives (1000-fold above normal levels), whereas CA and derived species were not restored.

[5] = diet 0.1, 0.5 or 1% of chow weight, one month

SMILES: C[C@H](CCC(=O)O)[C@H]1CC[C@H]2[C@@H]3[C@H](O)C[C@@H]4C[C@H](O)CC[C@]4(C)[C@H]3CC[C@]12C [CDCA, chenodeoxycholic acid]
- 7αC4 in plasma (CTX mice [1]; [5]): dose-dependent reduction
- cholestanol in plasma (CTX mice [1]; [5]): dose-dependent reduction
- cholestanol levels in plasma (CTX mice [1]; diet 0.5% or higher, one month): below WT mice; also recorded: very efficient
- 7αC4 in plasma (CTX mice [1]; diet 0.5%, one month, male and female): full normalization; also recorded: not completely normalized
- therapeutic dose in the CTX model (CTX mice [1]; percent of chow weight, dose required for normalization of 7αC4): 0.5%
- body weight (CTX mice [2]): weight loss
- transcription of the endogenous Cyp27a1 gene (Cyp27a1): moderate inhibition
- Cyp3a11 expression in liver (Cyp3a11): only a slight reduction
- Cyp7a1 expression in liver (Cyp7a1): drastic reduction of Cyp7a1 expression, below physiological levels; also recorded: virtually abrogated
- hepatomegaly (relative liver weight) (CTX mice [3]): only partially
- CA and derived species in blood (CTX mice [4]; 0.5% chow weight, 5 months): not restored
- increase in CDCA and its derivatives in blood above normal levels (CTX mice [4]; 0.5% chow weight, 5 months): 1000 fold
- CDCA in blood (CTX mice [4]; therapeutic dose (0.5%)): marked accumulation
